Experimental data as given in publication PMC3744640 (Bioorganic & medicinal chemistry letters, 2013).
“Also recorded” adds a separate entry of the source.

Legend:
HepG2 = assay: growth inhibition of HepG2 liver carcinoma cells; type: cell-based; details: up to 100 μM
Huh-7 = assay: growth inhibition of Huh-7 liver carcinoma cells; type: cell-based; details: up to 100 μM
VEGFR-2 = VEGFR-2 (Homo sapiens, UniProt P35968); assay: VEGFR-2 inhibition at a single concentration; type: biochemical; details: 10 μM concentration of test compound
C-RAF = C-RAF (Homo sapiens, UniProt P04049); assay: C-RAF kinase inhibition; type: biochemical; details: compared with t-CUPM
10 recombinant kinases = details: 10 μM concentration
[1] = system: lipopolysaccharide-induced inflammation; details: lipopolysaccharide-induced inflammation murine model; cited from earlier work

Sequence of VEGFR-2 (P35968 20-1356): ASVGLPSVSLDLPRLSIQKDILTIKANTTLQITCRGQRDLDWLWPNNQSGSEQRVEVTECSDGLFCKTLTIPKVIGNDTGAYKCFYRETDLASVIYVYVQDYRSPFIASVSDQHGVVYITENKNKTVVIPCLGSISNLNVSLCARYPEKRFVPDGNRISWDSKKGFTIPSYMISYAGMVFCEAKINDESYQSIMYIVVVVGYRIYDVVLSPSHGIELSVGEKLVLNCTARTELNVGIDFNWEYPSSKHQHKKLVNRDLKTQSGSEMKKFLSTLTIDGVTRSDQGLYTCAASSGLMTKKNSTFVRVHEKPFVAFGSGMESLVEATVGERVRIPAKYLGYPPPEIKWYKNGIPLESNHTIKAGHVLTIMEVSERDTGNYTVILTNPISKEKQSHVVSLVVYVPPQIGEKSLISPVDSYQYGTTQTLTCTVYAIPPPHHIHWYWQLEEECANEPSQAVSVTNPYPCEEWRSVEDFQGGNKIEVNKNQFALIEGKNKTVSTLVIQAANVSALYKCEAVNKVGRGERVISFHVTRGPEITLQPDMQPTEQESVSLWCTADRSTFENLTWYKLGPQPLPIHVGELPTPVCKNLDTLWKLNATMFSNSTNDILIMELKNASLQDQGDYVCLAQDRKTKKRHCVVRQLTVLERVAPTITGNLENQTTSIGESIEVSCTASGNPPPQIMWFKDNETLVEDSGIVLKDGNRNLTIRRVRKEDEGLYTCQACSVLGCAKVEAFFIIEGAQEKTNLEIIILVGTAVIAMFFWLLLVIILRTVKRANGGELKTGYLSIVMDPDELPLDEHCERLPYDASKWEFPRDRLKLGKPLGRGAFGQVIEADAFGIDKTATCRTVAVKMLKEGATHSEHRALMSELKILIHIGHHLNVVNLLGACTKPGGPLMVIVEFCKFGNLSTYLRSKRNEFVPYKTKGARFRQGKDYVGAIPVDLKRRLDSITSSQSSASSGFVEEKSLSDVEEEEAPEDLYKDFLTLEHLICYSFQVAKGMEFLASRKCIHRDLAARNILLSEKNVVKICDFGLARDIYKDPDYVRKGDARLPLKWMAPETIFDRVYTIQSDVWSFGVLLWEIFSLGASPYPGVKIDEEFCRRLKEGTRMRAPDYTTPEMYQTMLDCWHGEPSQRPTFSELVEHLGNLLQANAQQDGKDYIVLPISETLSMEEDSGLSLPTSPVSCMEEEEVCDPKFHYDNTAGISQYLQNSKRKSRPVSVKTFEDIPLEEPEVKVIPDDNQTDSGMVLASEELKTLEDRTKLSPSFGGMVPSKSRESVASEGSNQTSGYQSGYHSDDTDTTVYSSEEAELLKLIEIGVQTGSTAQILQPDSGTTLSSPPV
Sequence of C-RAF (P04049 whole entry): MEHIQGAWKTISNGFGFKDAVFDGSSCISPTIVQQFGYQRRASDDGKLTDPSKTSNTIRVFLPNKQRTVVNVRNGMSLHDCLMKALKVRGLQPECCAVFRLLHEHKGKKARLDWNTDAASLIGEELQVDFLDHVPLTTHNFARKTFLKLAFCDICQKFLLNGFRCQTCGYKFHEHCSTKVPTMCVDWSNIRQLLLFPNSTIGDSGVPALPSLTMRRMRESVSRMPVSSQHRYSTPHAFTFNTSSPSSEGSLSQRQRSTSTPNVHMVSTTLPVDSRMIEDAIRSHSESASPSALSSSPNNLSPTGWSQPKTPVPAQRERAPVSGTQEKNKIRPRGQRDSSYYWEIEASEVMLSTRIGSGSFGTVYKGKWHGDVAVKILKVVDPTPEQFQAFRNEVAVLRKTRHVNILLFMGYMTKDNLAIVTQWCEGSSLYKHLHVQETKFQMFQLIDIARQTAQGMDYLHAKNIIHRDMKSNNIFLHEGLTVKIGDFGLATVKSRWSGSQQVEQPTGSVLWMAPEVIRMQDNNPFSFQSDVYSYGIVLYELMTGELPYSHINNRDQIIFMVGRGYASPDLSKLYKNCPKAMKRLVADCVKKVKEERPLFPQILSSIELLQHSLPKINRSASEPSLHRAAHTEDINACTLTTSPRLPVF

Row | SMILES | Percent inhibition against VEGFR-2 (in words) (VEGFR-2) | other results
1 | CS(=O)(=O)N1CCC(NC(=O)Nc2ccc(OC(F)(F)F)cc2)CC1 [TUPS] |  | effect on cell viability (in words) (HepG2): no observable effects on cell viability; effect on cell viability (in words) (Huh-7): no observable effects on cell viability
2 | CNC(=O)c1cc(O[C@H]2CC[C@H](NC(=O)Nc3ccc(Cl)c(C(F)(F)F)c3)CC2)ccn1 [compound 4, trans-4-{4-[3-(4-chloro-3-trifluoromethyl-phenyl)-ureido]-cyclohexyloxy}-pyridine-2-carboxylic acid methylamide] | displayed potency towards VEGFR-2 | 
3 | O=C(Nc1ccc(Cl)c(C(F)(F)F)c1)N[C@H]1CC[C@H](Oc2cccc(C(=O)O)c2)CC1 [compound 7, trans-3-{4-[3-(4-chloro-3-trifluoromethyl-phenyl)-ureido]-cyclohexyloxy}-benzoic acid] | lack of VEGFR-2 inhibition | 
4 | CNC(=O)c1cccc(O[C@H]2CC[C@H](NC(=O)Nc3ccc(Cl)c(C(F)(F)F)c3)CC2)c1 [compound 8] |  | Percent inhibition against VEGFR-2 (in words) (VEGFR-2; 10 µM): little inhibitory activity; also recorded: lack of VEGFR-2 inhibition
5 | CNC(=O)c1ccc(O[C@H]2CC[C@H](NC(=O)Nc3ccc(Cl)c(C(F)(F)F)c3)CC2)cn1 [compound 9] | displayed potency towards VEGFR-2 | fold less activity against C-RAF relative to t-CUPM (C-RAF): 2.3 fold
6 | O=C(Nc1ccc(OC(F)(F)F)cc1)N[C@H]1CC[C@H](Oc2ccc(C(=O)O)cc2)CC1 [compound 12, trans-4-{4-[3-(4-trifluoromethoxy-phenyl)-ureido]-cyclohexyloxy}-benzoic acid] |  | multi-kinase inhibition (in words) (10 recombinant kinases): no significant multi-kinase inhibition
7 | CNC(=O)c1cc(O[C@H]2CC[C@@H](NC(=O)Nc3ccc(Cl)c(C(F)(F)F)c3)CC2)ccn1 [compound 17] | lack of VEGFR-2 inhibition | 
8 | CNC(=O)c1cc(Oc2ccc(NC(=O)NC34CC5CC(CC(C5)C3)C4)cc2)ccn1 [compound 21] | displayed potency towards VEGFR-2 | 
9 | CNC(=O)c1cc(Oc2ccc(NC(=O)Nc3ccc(OC(F)(F)F)cc3)cc2)ccn1 [compound 22] | displayed potency towards VEGFR-2 | 
10 | CNC(=O)c1cc(Oc2ccc(NC(=O)Nc3ccc(Cl)c(C(F)(F)F)c3)cc2)ccn1 [sorafenib] |  | anti-inflammatory response (in words) [1]: exhibits similar anti-inflammatory responses as conventional sEH inhibitors
